Measured values taken from ChEMBL document CHEMBL5365534, “Discovery of a Novel Ketohexokinase Inhibitor with Improved Drug Distribution in Target Tissue for the Treatment of Fructose Metabolic Disease” (J Med Chem, 2023).

Key:
[1] = Drug metabolism in dog hepatocytes assessed as glycine conjugation metabolite at 10 uM measured upto 240 mins by LC-MS/MS analysis; type: ADME, cell-based, Canis lupus familiaris, Hepatocyte; conditions: 4 h
[2] = Metabolic stability in mouse hepatocyte assessed as parent compound remaining at 10 uM measured after 4 hrs by LC-MS/MS analysis; type: ADME, cell-based; conditions: hepatocytes, read-out: Stability
[3] = in vivo; conditions: Sprague-Dawley, rat, plasma, po, 10 mg/kg
[4] = target: Cytochrome P450 3A4 (Homo sapiens, UniProt P08684); experiment: Time dependent inhibition of CYP3A4 in human liver microsomes at 10 uM preincubated for 30 mins followed by substrate addition and measured after 15 mins in presence of NADPH by LC-MS/MS analysis; type: ADME, Microsome
Cytochrome P450 3A4, sequence (P08684 whole entry): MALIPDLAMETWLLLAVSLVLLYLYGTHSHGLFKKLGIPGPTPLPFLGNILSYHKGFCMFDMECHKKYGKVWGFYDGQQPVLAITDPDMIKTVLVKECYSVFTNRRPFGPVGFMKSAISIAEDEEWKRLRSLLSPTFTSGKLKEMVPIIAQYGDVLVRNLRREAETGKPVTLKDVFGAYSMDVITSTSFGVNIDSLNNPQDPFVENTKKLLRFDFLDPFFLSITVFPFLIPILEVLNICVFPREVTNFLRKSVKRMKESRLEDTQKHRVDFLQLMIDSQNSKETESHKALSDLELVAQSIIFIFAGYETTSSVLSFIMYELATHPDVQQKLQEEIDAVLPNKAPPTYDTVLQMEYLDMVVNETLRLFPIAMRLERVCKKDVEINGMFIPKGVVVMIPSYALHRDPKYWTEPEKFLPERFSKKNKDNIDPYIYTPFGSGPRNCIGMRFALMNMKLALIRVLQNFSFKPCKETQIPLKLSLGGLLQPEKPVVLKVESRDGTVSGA

[5] = Metabolic stability in human hepatocyte assessed as parent compound remaining at 10 uM measured after 4 hrs by LC-MS/MS analysis; type: ADME, cell-based; conditions: hepatocytes, read-out: Stability
[6] = Volume of distribution at steady state in Sprague-Dawley rat at 10 mg/kg, iv administered as single dose measured upto 24 hrs by LC-MS/MS analysis; type: ADME, organism-based; conditions: in vivo, read-out: Vdss
[7] = target: T1, Cytochrome P450 1A2 (Homo sapiens, UniProt P05177)
T1 sequence (P05177 whole entry): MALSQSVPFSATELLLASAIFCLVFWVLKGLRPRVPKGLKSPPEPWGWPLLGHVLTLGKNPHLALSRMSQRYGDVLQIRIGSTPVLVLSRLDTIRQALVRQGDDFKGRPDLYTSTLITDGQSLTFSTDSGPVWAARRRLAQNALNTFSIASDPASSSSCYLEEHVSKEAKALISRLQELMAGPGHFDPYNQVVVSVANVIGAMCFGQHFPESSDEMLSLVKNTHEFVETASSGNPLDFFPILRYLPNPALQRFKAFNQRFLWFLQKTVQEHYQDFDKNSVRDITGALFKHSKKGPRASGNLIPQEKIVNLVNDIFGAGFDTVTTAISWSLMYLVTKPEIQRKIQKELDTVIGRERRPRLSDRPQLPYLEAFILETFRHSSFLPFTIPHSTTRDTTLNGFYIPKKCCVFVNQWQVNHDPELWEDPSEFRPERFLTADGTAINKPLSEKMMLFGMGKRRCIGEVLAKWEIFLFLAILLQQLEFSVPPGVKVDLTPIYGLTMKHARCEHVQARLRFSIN

[8] = Tmax in Sprague-Dawley rat at 10 mg/kg, po administered as single dose measured upto 24 hrs by LC-MS/MS analysis; type: ADME, organism-based; conditions: in vivo
[9] = AUC (0 to t) in Beagle dog at 5 mg/kg, po administered as single dose measured upto 24 hrs by LC-MS/MS analysis; type: ADME, organism-based, Canis lupus familiaris; parameters: dose 5 mg/kg, time < 24 hrs, route po; conditions: in vivo
[10] = Drug metabolism in human hepatocytes assessed as oxidation/hydrogenation/decarboxylation metabolite at 10 uM measured upto 240 mins by LC-MS/MS analysis; type: ADME, cell-based, Hepatocyte; conditions: 4 h
[11] = Elimination half life in Beagle dog at 5 mg/kg, po administered as single dose measured upto 24 hrs by LC-MS/MS analysis; type: ADME, organism-based, Canis lupus familiaris; conditions: in vivo, read-out: beta t1/2 (converted)
[12] = Volume of distribution at steady state in Beagle dog at 1 mg/kg, iv administered as single dose measured upto 24 hrs by LC-MS/MS analysis; type: ADME, organism-based, Canis lupus familiaris; conditions: in vivo, read-out: Vdss
[13] = in vivo; conditions: Sprague-Dawley, rat, kidney/plasma, po, 10 mg/kg
[14] = in vivo; conditions: Sprague-Dawley, rat, kidney, po, 10 mg/kg
[15] = MRT (0 to t) in Beagle dog at 5 mg/kg, po administered as single dose measured upto 24 hrs by LC-MS/MS analysis; type: ADME, organism-based, Canis lupus familiaris; conditions: in vivo
[16] = target: T2, Cytochrome P450 2C19 (Homo sapiens, UniProt P33261); experiment: Time dependent inhibition of CYP2C19 in human liver microsomes at 10 uM preincubated for 30 mins followed by substrate addition and measured after 15 mins in presence of NADPH by LC-MS/MS analysis; type: ADME, Microsome
T2 sequence (P33261 whole entry): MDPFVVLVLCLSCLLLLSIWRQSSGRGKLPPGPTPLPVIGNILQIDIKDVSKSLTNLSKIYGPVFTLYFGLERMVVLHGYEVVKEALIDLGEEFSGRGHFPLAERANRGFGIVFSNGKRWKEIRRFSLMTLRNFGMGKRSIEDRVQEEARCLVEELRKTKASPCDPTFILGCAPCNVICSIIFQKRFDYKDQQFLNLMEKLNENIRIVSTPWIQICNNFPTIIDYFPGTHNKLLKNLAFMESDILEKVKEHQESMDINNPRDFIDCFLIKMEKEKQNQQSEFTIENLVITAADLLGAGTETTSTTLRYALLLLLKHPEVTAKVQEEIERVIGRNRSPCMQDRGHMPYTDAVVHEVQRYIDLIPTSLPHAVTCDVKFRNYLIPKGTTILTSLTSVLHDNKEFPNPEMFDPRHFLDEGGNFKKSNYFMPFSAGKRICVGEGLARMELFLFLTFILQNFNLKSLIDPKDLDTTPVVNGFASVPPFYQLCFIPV

[17] = test system: HepG2; experiment: cells; conditions: Homo sapiens, HepG2, 48 h
[18] = in vitro; conditions: human, Caco-2
[19] = Metabolic stability in monkey hepatocyte assessed as parent compound remaining at 10 uM measured after 4 hrs by LC-MS/MS analysis; type: ADME, cell-based, Macaca mulatta; conditions: rhesus monkey, hepatocytes, read-out: Stability
[20] = Elimination half life in Sprague-Dawley rat at 10 mg/kg, iv administered as single dose measured upto 24 hrs by LC-MS/MS analysis; type: ADME, organism-based; conditions: in vivo, read-out: beta t1/2 (converted)
[21] = Cmax in Beagle dog at 5 mg/kg, po administered as single dose measured upto 24 hrs by LC-MS/MS analysis; type: ADME, organism-based, Canis lupus familiaris; parameters: time < 24 hrs, dose 5 mg/kg, route po; conditions: in vivo
[22] = Cmax in Sprague-Dawley rat at 10 mg/kg, po administered as single dose measured upto 24 hrs by LC-MS/MS analysis; type: ADME, organism-based; parameters: time < 24 hrs, dose 10 mg/kg, route po; conditions: in vivo
[23] = in vitro; conditions: rat, plasma
[24] = target: T2, Cytochrome P450 2C19
[25] = Drug metabolism in mouse hepatocytes assessed as oxidation/hydrogenation/decarboxylation metabolite at 10 uM measured upto 240 mins by LC-MS/MS analysis; type: ADME, cell-based, Hepatocyte; conditions: 4 h
[26] = physchem
[27] = test system: HepG2; experiment: cells; conditions: Homo sapiens, HepG2, 3 h
[28] = in vitro; conditions: rhesus monkey, hepatocytes
[29] = target: T3, Ketohexokinase (Homo sapiens, UniProt P50053)
T3 sequence (P50053 whole entry): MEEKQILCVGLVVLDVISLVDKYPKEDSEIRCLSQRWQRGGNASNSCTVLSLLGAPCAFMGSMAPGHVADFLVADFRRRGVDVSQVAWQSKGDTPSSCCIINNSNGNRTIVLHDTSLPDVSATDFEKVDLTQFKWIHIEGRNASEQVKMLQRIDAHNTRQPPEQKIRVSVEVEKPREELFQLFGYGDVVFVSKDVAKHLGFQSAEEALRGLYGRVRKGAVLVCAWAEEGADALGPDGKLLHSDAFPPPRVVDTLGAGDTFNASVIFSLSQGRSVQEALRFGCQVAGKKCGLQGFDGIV

[30] = AUC (0 to t) in Sprague-Dawley rat at 10 mg/kg, iv administered as single dose measured upto 24 hrs by LC-MS/MS analysis; type: ADME, organism-based; parameters: dose 10 mg/kg, time < 24 hrs, route iv; conditions: in vivo
[31] = AUC (0 to t) in Sprague-Dawley rat at 10 mg/kg, po administered as single dose measured upto 24 hrs by LC-MS/MS analysis; type: ADME, organism-based; parameters: time < 24 hrs, dose 10 mg/kg, route po; conditions: in vivo
[32] = Drug metabolism in mouse hepatocytes assessed as glucuronidation metabolite at 10 uM measured upto 240 mins by LC-MS/MS analysis; type: ADME, cell-based, Hepatocyte; conditions: 4 h
[33] = target: Voltage-gated inwardly rectifying potassium channel KCNH2 (Homo sapiens, UniProt Q12809)
Voltage-gated inwardly rectifying potassium channel KCNH2, sequence (Q12809 whole entry): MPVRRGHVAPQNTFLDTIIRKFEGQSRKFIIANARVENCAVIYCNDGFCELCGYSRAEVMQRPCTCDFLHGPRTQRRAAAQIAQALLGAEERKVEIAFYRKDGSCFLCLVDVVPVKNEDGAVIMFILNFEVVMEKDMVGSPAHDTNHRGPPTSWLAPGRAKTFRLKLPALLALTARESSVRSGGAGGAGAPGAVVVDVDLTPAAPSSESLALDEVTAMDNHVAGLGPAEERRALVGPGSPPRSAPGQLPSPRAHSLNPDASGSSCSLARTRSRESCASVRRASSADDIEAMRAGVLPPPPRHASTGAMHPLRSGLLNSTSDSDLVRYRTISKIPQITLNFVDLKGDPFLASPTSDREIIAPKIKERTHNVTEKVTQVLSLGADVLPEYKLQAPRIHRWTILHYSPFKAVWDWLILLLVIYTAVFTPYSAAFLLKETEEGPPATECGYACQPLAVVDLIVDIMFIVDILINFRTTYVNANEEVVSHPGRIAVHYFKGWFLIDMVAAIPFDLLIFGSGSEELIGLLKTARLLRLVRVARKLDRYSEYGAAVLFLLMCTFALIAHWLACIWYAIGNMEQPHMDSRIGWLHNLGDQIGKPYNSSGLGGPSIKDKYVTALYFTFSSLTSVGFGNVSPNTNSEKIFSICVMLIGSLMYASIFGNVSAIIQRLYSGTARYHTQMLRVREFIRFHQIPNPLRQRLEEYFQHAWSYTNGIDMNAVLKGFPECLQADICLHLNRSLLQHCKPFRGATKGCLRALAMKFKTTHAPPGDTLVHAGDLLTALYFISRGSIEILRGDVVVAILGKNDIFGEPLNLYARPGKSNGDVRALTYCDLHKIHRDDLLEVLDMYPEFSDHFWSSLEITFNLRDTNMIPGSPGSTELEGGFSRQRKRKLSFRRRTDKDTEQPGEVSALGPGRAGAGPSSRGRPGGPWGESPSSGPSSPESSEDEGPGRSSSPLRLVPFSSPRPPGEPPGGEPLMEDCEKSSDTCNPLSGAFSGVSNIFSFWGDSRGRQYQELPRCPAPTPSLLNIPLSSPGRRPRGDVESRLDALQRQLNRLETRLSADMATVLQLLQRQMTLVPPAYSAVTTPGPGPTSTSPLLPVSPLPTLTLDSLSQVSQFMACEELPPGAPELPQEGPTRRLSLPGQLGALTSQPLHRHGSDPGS

Drug metabolism [1]: Metabolite_Notdetected
remaining at 4 h, 10 µM [2]: 96.6%
concentration at 24 h [3]: 5080 ng/mL
IC50 [4]: > 10 µM
remaining at 4 h, 10 µM [5]: 98.5%
Vd [6]: 0.89 L/kg
IC50 [7]: > 30 µM
Tmax [8]: 2.33 h
AUCt [9]: 33400 ng·h/mL
Drug metabolism [10]: Metabolite_Notdetected
half-life [11]: 5.21 h
Vd [12]: 0.87 L/kg
Kp at 24 h [13]: 2.2
concentration at 24 h [14]: 11000 ng/g
MRT last at 24 h [15]: 4.15 h
IC50 [16]: > 10 µM
IC50 [17]: > 150 µM
Papp A→B at 2 h, 10 µM [18]: 3.64 ×10⁻⁶ cm/s
remaining at 4 h, 10 µM [19]: 95.8%
half-life [20]: 5.82 h
Cmax [21]: 10100 ng/mL
Cmax [22]: 4900 ng/mL
fraction unbound [23]: 0.025
IC50 [24]: > 30 µM
Drug metabolism [25]: Metabolite_Notdetected
solubility kinetic [26]: > 1000 µM
IC50 [27]: 0.196 µM
hepatocyte CLint at 2 h, 1 µM [28]: < 0.96 µL/min/1e6 cells
IC50 [29]: 0.0351 µM
AUCt [30]: 73000 ng·h/mL
AUCt [31]: 39900 ng·h/mL
Drug metabolism [32]: Metabolite_Notdetected
SMILES: C[C@H]1CCN1c1nc(N2CC[C@H](CCC(=O)O)C2)c2c(n1)C(F)(F)CC2
IC50 [33]: > 30 µM
